Experiment in all cases: Herbicidal effect by foliage and soil treatment
What all share (assay type): in vivo
Common to all, as to details: 10 g ai/10a, evaluated after 14 days

For experiment [1], the system named is common chickweed (Stellaria media). In a few lines: (§1)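 Seedlings grown in granular soil in a 19–25 °C greenhouse to the cotyledon–two-leaf stage were sprayed over foliage and soil with compound in Tween 20/water at a set application rate. Growth was scored on a rating scale against untreated plants after 14 days.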
Experiment [2] concerns redroot pigweed (Amaranthus retroflexus). In a few lines: as §1
Experiment [3] has as its system black nightshade (Solanum nigrum). The method in brief: as §1
For experiment [4], the system named is common blackjack (Bidens pilosa). In a few lines:
as §1

In experiment [5] the test system is sicklepod (Cassia obtusifolia). The method in brief:
as §1

In experiment [6] the test system is cleavers (Galium aparine). In a few lines: as §1
In experiment [7] the test system is wild chamomile (Matricaria chamomilla). In a few lines: as §1
Experiment [8] has as its system velvetleaf (Abutilon theophrasti). In a few lines: as §1
Experiment [9] deals with field bindweed (Convolvulus arvensis). The method in brief: as §1
Experiment [10] has as its system ivyleafspeedwell (Veronica hederaefolia). The method in brief:
as §1

The test system of experiment [11] is kediock (Sinapis arvensis). The method in brief:
as §1

Each structure is given as a SMILES string.

This note sets out measurements from patent US6339045B1, “N-(unsubstituted or substituted)-4-substituted-6-(unsubstituted or substituted)phenoxy-2-pyridinecarboxamides or thiocarboxamides, processes for producing the same, and herbicides” (Kureha Kagaku Kogyo Kabushiki Kaisha, priority 1995, dated 2002).

Take `COc1cc(Oc2cccc(C(F)(F)F)c2)nc(C(=O)NCCCCl)c1` [Compound I-79]: in [1], the “herbicidal activity rating, SM (Stellaria media)” value (“herbicidal activity rating, SM” for short) is given as 5 (percentage of weeds killed was not less than 80%). Further, in experiment [2], the “herbicidal activity rating, AR (Amaranthus retroflexus)” value (shortened to “herbicidal activity rating, AR”) is given as 5 (percentage of weeds killed was not less than 80%). Also, the “herbicidal activity rating, SN (Solanum nigrum)” value (from here on “herbicidal activity rating, SN”) in experiment [3] was 5 (percentage of weeds killed was not less than 80%). Also, the “herbicidal activity rating, BP (Bidens pilosa)” value (“herbicidal activity rating, BP” for short) in experiment [4] is on record as 5 (percentage of weeds killed was not less than 80%). In addition, the “herbicidal activity rating, CO (Cassia obtusifolia)” value (shortened to “herbicidal activity rating, CO”) in experiment [5] is given as 5 (percentage of weeds killed was not less than 80%). In addition, in experiment [6], the “herbicidal activity rating, GA (Galium aparine)” value (from here on “herbicidal activity rating, GA”) was 5 (percentage of weeds killed was not less than 80%). In experiment [7], the “herbicidal activity rating, MC (Matricaria chamomilla)” value (“herbicidal activity rating, MC” for short) is 5 (percentage of weeds killed was not less than 80%). The “herbicidal activity rating, AT (Abutilon theophrasti)” value in [8] is given as 5 (percentage of weeds killed was not less than 80%). In addition, in experiment [9], the “herbicidal activity rating, CA (Convolvulus arvensis)” value (shortened to “herbicidal activity rating, CA”) is 4 (percentage of weeds killed was not less than 60% and less than 80%). The “herbicidal activity rating, VH (Veronica hederaefolia)” value (from here on “herbicidal activity rating, VH”) in experiment [10] is 5 (percentage of weeds killed was not less than 80%). For the same compound, in [11], the “herbicidal activity rating, SA (Sinapis arvensis)” value (shortened to “herbicidal activity rating, SA”) is listed as 5 (percentage of weeds killed was not less than 80%).
On to `COc1cc(Oc2cccc(C(F)(F)F)c2)nc(C(=O)NCC(F)(F)C(F)(F)C(F)(F)F)c1` [Compound I-80], for which, in experiment [1], the “herbicidal activity rating, SM” value is on record as 5 (percentage of weeds killed was not less than 80%). In addition, the “herbicidal activity rating, AR” value in [2] is recorded as 5 (percentage of weeds killed was not less than 80%). The “herbicidal activity rating, SN” value in experiment [3] is reported as 5 (percentage of weeds killed was not less than 80%). The “herbicidal activity rating, BP” value in [4] was 5 (percentage of weeds killed was not less than 80%). In experiment [5], the “herbicidal activity rating, CO” value is listed as 5 (percentage of weeds killed was not less than 80%). In addition, in [6], the “herbicidal activity rating, GA” value was 5 (percentage of weeds killed was not less than 80%). Moreover, the “herbicidal activity rating, MC” value in [7] was 5 (percentage of weeds killed was not less than 80%). Also, the “herbicidal activity rating, AT (Abutilon theophrasti)” value in experiment [8] is 5 (percentage of weeds killed was not less than 80%). The “herbicidal activity rating, CA” value in [9] was 5 (percentage of weeds killed was not less than 80%). Moreover, the “herbicidal activity rating, VH” value in experiment [10] is given as 5 (percentage of weeds killed was not less than 80%). For the same compound, in experiment [11], the “herbicidal activity rating, SA” value is 5 (percentage of weeds killed was not less than 80%).
Regarding `COc1cc(Oc2cccc(C(F)(F)F)c2)nc(C(=O)NCC(F)(F)C(F)(F)F)c1` [Compound I-81], in experiment [1], the “herbicidal activity rating, SM” value is 5 (percentage of weeds killed was not less than 80%). The “herbicidal activity rating, AR” value in [2] is 5 (percentage of weeds killed was not less than 80%). Moreover, the “herbicidal activity rating, SN” value in experiment [3] is 5 (percentage of weeds killed was not less than 80%). Further, the “herbicidal activity rating, BP” value in experiment [4] was 5 (percentage of weeds killed was not less than 80%). For the same compound, the “herbicidal activity rating, CO” value in experiment [5] was 5 (percentage of weeds killed was not less than 80%). The “herbicidal activity rating, GA” value in experiment [6] is listed as 5 (percentage of weeds killed was not less than 80%). Besides, the “herbicidal activity rating, MC” value in experiment [7] is recorded as 5 (percentage of weeds killed was not less than 80%). Moreover, the “herbicidal activity rating, AT (Abutilon theophrasti)” value in [8] was 5 (percentage of weeds killed was not less than 80%). Besides, the “herbicidal activity rating, CA” value in experiment [9] is given as 5 (percentage of weeds killed was not less than 80%). For the same compound, the “herbicidal activity rating, VH” value in experiment [10] is listed as 5 (percentage of weeds killed was not less than 80%). Moreover, the “herbicidal activity rating, SA” value in experiment [11] is 5 (percentage of weeds killed was not less than 80%).
Consider `COc1cc(Oc2cccc(C(F)(F)F)c2)nc(C(=O)NCC(F)(F)F)c1` [Compound I-82], for which the “herbicidal activity rating, SM” value in experiment [1] is 5 (percentage of weeds killed was not less than 80%). In experiment [2], the “herbicidal activity rating, AR” value is recorded as 5 (percentage of weeds killed was not less than 80%). In experiment [3], the “herbicidal activity rating, SN” value is reported as 5 (percentage of weeds killed was not less than 80%). Besides, in experiment [4], the “herbicidal activity rating, BP” value was 4 (percentage of weeds killed was not less than 60% and less than 80%). Moreover, the “herbicidal activity rating, CO” value in experiment [5] is 5 (percentage of weeds killed was not less than 80%). The “herbicidal activity rating, GA” value in experiment [6] is on record as 5 (percentage of weeds killed was not less than 80%). Also, the “herbicidal activity rating, MC” value in experiment [7] is on record as 5 (percentage of weeds killed was not less than 80%). For the same compound, the “herbicidal activity rating, AT (Abutilon theophrasti)” value in experiment [8] is recorded as 5 (percentage of weeds killed was not less than 80%). Besides, the “herbicidal activity rating, CA” value in experiment [9] is 5 (percentage of weeds killed was not less than 80%). The “herbicidal activity rating, VH” value in experiment [10] is 5 (percentage of weeds killed was not less than 80%). Besides, the “herbicidal activity rating, SA” value in [11] is recorded as 5 (percentage of weeds killed was not less than 80%).
On to `COc1cc(Oc2cccc(C(F)(F)F)c2)nc(C(=O)NC=C(Cl)Cl)c1` [Compound I-83, N-(2,2-dichlorovinyl)-4-methoxy-6-{3-(trifluoromethyl)phenoxy}-2-pyridine carboxamide], for which the “herbicidal activity rating, SM” value in [1] is listed as 5 (percentage of weeds killed was not less than 80%). Further, the “herbicidal activity rating, AR” value in experiment [2] was 5 (percentage of weeds killed was not less than 80%). For the same compound, the “herbicidal activity rating, SN” value in [3] is given as 5 (percentage of weeds killed was not less than 80%). Moreover, in experiment [4], the “herbicidal activity rating, BP” value is 5 (percentage of weeds killed was not less than 80%). For the same compound, the “herbicidal activity rating, CO” value in experiment [5] was 5 (percentage of weeds killed was not less than 80%). In experiment [6], the “herbicidal activity rating, GA” value is reported as 5 (percentage of weeds killed was not less than 80%). In addition, in experiment [7], the “herbicidal activity rating, MC” value is given as 5 (percentage of weeds killed was not less than 80%). Moreover, the “herbicidal activity rating, AT (Abutilon theophrasti)” value in [8] is 5 (percentage of weeds killed was not less than 80%). Besides, the “herbicidal activity rating, CA” value in experiment [9] was 5 (percentage of weeds killed was not less than 80%). The “herbicidal activity rating, VH” value in experiment [10] is given as 5 (percentage of weeds killed was not less than 80%). Moreover, the “herbicidal activity rating, SA” value in [11] is given as 5 (percentage of weeds killed was not less than 80%).
Take `COc1cc(Oc2cccc(C(F)(F)F)c2)nc(C(=O)NCC#N)c1` [Compound I-84, N-{(2-cyano)methyl}-4-methoxy-6-{3-(trifluoromethyl)phenoxy}-2-pyridine carboxamide]: the “herbicidal activity rating, SM” value in experiment [1] was 4 (percentage of weeds killed was not less than 60% and less than 80%). The “herbicidal activity rating, AR” value in experiment [2] is listed as 5 (percentage of weeds killed was not less than 80%). In addition, the “herbicidal activity rating, SN” value in experiment [3] is given as 5 (percentage of weeds killed was not less than 80%). Further, in experiment [4], the “herbicidal activity rating, BP” value was 5 (percentage of weeds killed was not less than 80%). The “herbicidal activity rating, CO” value in experiment [5] is reported as 5 (percentage of weeds killed was not less than 80%). The “herbicidal activity rating, GA” value in [6] is given as 5 (percentage of weeds killed was not less than 80%). Besides, the “herbicidal activity rating, MC” value in experiment [7] was 2 (percentage of weeds killed was not less than 20% and less than 40%). The “herbicidal activity rating, AT (Abutilon theophrasti)” value in experiment [8] was 5 (percentage of weeds killed was not less than 80%). Further, the “herbicidal activity rating, CA” value in experiment [9] was 4 (percentage of weeds killed was not less than 60% and less than 80%). In [10], the “herbicidal activity rating, VH” value was 5 (percentage of weeds killed was not less than 80%). Further, the “herbicidal activity rating, SA” value in experiment [11] is recorded as 5 (percentage of weeds killed was not less than 80%).
As for `COc1cc(Oc2cccc(C(F)(F)F)c2)nc(C(=O)NCC2CC2)c1` [Compound I-85], the “herbicidal activity rating, SM” value in experiment [1] is on record as 5 (percentage of weeds killed was not less than 80%). The “herbicidal activity rating, AR” value in experiment [2] was 5 (percentage of weeds killed was not less than 80%). The “herbicidal activity rating, SN” value in experiment [3] is listed as 5 (percentage of weeds killed was not less than 80%). Moreover, in experiment [4], the “herbicidal activity rating, BP” value is 4 (percentage of weeds killed was not less than 60% and less than 80%). In experiment [5], the “herbicidal activity rating, CO” value is recorded as 5 (percentage of weeds killed was not less than 80%). Moreover, the “herbicidal activity rating, GA” value in [6] is reported as 5 (percentage of weeds killed was not less than 80%). The “herbicidal activity rating, MC” value in [7] was 5 (percentage of weeds killed was not less than 80%). Also, in experiment [8], the “herbicidal activity rating, AT (Abutilon theophrasti)” value is reported as 5 (percentage of weeds killed was not less than 80%). For the same compound, the “herbicidal activity rating, CA” value in experiment [9] is 4 (percentage of weeds killed was not less than 60% and less than 80%). For the same compound, in experiment [10], the “herbicidal activity rating, VH” value was 5 (percentage of weeds killed was not less than 80%). Also, the “herbicidal activity rating, SA” value in [11] was 5 (percentage of weeds killed was not less than 80%).
